Source: patent US20190135793A1, “HETEROCYCLIC INHIBITORS OF KDM5 FOR THE TREATMENT OF DISEASE” (Board of Regents, The University of Texas System, priority 2017, published 2019)
pIC50: −log10 of the molar value. Where two headings read alike, the source gives them in different places.

Tests used:
KDM4C = molecular target: T1, KDM4C (Homo sapiens, UniProt Q9H3R0); assay: KDM4C AlphaScreen assay; type: biochemical; conditions: AlphaScreen; full length KDM4C 0.2 nM; biotinylated H3K9Me3 peptide 3 nM; 30 minutes at room temperature
T1 construct: Full length of KDM5B and KDM4C protein were purchased from Active Motif; purchased Active Motif 31858
T1 sequence (Q9H3R0 1-1056): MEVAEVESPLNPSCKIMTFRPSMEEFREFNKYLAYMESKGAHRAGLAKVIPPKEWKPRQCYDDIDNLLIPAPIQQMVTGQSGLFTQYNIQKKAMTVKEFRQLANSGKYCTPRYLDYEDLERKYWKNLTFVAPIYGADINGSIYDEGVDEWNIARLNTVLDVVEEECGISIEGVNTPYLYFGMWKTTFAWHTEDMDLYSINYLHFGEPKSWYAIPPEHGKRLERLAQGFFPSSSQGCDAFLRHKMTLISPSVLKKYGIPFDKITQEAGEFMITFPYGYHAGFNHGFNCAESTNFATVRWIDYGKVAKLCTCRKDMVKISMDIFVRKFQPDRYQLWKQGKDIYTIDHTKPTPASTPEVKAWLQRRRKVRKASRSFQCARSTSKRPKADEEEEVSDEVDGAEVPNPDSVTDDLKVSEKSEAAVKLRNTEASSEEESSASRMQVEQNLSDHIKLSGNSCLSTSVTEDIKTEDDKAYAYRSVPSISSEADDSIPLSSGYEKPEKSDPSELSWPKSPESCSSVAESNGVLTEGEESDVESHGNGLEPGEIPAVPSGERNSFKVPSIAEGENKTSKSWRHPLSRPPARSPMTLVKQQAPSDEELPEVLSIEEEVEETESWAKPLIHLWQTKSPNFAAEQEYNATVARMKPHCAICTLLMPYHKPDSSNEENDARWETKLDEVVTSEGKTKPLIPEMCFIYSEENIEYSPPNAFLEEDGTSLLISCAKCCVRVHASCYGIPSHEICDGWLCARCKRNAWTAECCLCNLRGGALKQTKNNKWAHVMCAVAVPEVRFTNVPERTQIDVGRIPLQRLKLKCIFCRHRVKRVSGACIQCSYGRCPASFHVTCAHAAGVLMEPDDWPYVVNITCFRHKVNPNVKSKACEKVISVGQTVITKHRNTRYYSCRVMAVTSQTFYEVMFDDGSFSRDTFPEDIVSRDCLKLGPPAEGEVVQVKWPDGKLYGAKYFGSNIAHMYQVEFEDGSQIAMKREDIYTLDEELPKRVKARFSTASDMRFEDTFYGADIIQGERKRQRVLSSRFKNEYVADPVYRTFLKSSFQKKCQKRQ
Procedure, shortened: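 Full-length KDM4C (0.2 nM final) was preincubated 15 min at RT with compound in HEPES pH 7.4 with Tween-20, BSA and TCEP. The reaction ran 30 min at RT after adding biotinylated peptide (3 nM final) in buffer with Fe(II), α-ketoglutarate and ascorbate. EDTA-containing AlphaScreen beads stopped it; IC50 was curve-fitted.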

KDM5B = molecular target: T2, KDM5B (Homo sapiens, UniProt Q9UGL1); assay: biochemical
T2 construct: Full length of KDM5B and KDM4C protein were purchased from Active Motif; purchased Active Motif 31832
T2 sequence (Q9UGL1 whole entry): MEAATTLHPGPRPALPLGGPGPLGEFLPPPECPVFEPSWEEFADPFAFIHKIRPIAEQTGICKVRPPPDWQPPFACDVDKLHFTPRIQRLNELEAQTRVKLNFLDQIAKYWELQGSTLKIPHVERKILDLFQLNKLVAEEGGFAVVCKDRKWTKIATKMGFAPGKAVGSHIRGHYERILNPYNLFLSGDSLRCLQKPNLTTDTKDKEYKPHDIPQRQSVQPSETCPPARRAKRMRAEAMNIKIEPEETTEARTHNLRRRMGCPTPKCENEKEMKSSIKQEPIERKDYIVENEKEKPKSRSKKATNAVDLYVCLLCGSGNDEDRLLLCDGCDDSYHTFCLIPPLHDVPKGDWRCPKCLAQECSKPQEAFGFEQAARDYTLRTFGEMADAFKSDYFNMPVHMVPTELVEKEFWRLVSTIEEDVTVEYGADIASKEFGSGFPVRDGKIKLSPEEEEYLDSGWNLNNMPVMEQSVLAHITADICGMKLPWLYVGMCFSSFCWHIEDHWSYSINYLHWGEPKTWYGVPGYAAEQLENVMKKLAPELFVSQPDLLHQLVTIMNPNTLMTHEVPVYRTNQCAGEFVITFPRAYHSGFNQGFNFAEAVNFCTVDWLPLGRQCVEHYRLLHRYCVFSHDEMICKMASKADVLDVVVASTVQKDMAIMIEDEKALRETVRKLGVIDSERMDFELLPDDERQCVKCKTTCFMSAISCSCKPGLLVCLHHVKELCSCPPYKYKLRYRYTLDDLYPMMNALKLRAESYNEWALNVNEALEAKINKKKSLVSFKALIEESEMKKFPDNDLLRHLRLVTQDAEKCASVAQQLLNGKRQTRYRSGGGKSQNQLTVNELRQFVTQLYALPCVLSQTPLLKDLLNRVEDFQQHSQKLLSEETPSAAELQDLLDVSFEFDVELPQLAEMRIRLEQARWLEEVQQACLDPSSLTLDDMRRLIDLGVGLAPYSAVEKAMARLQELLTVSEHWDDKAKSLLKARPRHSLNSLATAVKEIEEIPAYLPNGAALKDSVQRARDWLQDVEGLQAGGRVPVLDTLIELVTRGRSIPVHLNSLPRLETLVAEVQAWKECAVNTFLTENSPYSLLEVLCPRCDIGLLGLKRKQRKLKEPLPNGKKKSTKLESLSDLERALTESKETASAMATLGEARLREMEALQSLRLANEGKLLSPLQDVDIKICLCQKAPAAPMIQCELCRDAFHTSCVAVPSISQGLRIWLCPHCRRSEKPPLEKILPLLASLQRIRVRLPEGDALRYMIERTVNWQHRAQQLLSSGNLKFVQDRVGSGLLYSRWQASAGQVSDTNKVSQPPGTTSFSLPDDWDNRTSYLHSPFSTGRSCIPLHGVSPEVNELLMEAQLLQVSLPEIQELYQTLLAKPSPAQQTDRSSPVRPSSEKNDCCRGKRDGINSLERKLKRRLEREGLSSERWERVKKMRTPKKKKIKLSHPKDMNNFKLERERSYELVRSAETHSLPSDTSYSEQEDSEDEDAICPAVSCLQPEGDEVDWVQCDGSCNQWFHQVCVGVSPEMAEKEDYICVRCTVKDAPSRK
Procedure, shortened: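 KDM5B (0.5 nM final) was preincubated with compound for 15 min at room temperature, then reacted with biotinylated peptide (3 nM final) for 25 min at room temperature.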

[1] = AlphaScreen, full length KDM5B 0.5 nM, biotinylated H3K4Me3 peptide 3 nM, 25 minutes at room temperature, read-out: KDM5B (IC50)

Row | pIC50 (KDM4C) | pIC50 (KDM5B; [1]) | pIC50 (KDM5B) | SMILES
1 | 5.65 |  | 7.52 | CC(C)c1c(O)nc(-n2ccnc2)nc1-c1cnn(CC(=O)NCCN(C)CC(F)(F)F)c1 [Example 116, 2-{4-[6-Hydroxy-2-(1H-imidazol-1-yl)-5-(propan-2-yl)pyrimidin-4-yl]-1H-pyrazol-1-yl}-N-{2-[methyl-(2,2,2-trifluoroethyl)amino]-ethyl}acetamide]
2 | 5.71 |  | 7.51 | CC(C)c1c(O)nc(-n2ccnc2)nc1-c1cnn(CC(=O)N2CCOCC2)c1 [Example 117, 2-{4-[6-Hydroxy-2-(1H-imidazol-1-yl)-5-(propan-2-yl)pyrimidin-4-yl]-1H-pyrazol-1-yl}-1-(morpholin-4-yl)ethan-1-one]
3 | 5.51 |  | 7.48 | COCCNC(=O)Cn1cc(-c2nc(-n3ccnc3)nc(O)c2C(C)C)cn1 [Example 118, 2-{4-[6-Hydroxy-2-(1H-imidazol-1-yl)-5-(propan-2-yl)pyrimidin-4-yl]-1H-pyrazol-1-yl}-N-(2-methoxy-ethyl)acetamide]
4 | 5.73 | 7.41 |  | CC(C)c1c(O)nc(-n2ccnc2)nc1-c1cnn(CC(=O)N2CCC(O)CC2)c1 [Example 119, 2-{4-[6-Hydroxy-2-(1H-imidazol-1-yl)-5-(propan-2-yl)pyrimidin-4-yl]-1H-pyrazol-1-yl}-1-(4-hydroxy-piperidin-1-yl)ethan-1-one]
5 | 5.66 | 7.74 |  | CNC(=O)c1ccc(-c2nc(-n3ccnc3)nc(O)c2C(C)C)cn1 [Example 120, 5-[6-Hydroxy-2-(1H-imidazol-1-yl)-5-(propan-2-yl)pyrimidin-4-yl]-N-methyl-pyridine-2-carboxamide]
6 | 6.08 |  | 7.74 | CC(C)c1c(O)nc(-n2ccnc2)nc1-c1ccc(C(=O)O)nc1 [Example 121, 5-[6-Hydroxy-2-(1H-imidazol-1-yl)-5-(propan-2-yl)pyrimidin-4-yl]pyridine-2-carboxylic acid]
7 | 5.90 | 8.15 |  | CC(C)c1c(O)nc(-n2ccnc2)nc1OCCN1CCN(C)CC1 [Example 122, 2-(1H-Imidazol-1-yl)-6-[2-(4-methylpiperazin-1-yl)ethoxy]-5-(propan-2-yl)pyrimidin-4-ol]
8 | 5.80 |  | 8.05 | CC(C)c1c(O)nc(-n2ccnc2)nc1OCCN1CCOCC1 [Example 123, 2-(1H-Imidazol-1-yl)-6-[2-(morpholin-4-yl)ethoxy]-5-(propan-2-yl)pyrimidin-4-ol]
9 | 5.92 | 8.00 |  | CC(C)c1c(O)nc(-n2ccnc2)nc1OCCN1CCNCC1 [Example 124, 2-(1H-Imidazol-1-yl)-6-[2-(piperazin-1-yl)ethoxy]-5-(propan-2-yl)pyrimidin-4-ol]
10 | 5.63 | 7.85 |  | CC(=O)N1CCN(CCOc2nc(-n3ccnc3)nc(O)c2C(C)C)CC1 [Example 125, 1-[4-(2-{[6-Hydroxy-2-(1H-imidazol-1-yl)-5-(propan-2-yl)pyrimidin-4-yl]oxy}ethyl)-piperazin-1-yl]ethan-1-one]
11 | 6.08 |  | 7.82 | CC(C)c1c(O)nc(-n2ccnc2)nc1OCC1COCCN1 (centres unmarked) [Example 126, 2-(1H-Imidazol-1-yl)-6-(morpholin-3-ylmethoxy)-5-(propan-2-yl)pyrimidin-4-ol]
12 | 5.51 | 7.74 |  | CC(C)c1c(O)nc(-n2ccnc2)nc1OCC1CN(C(=O)OCc2ccccc2)CCN1 (centres unmarked) [Example 127, Benzyl 3-({[6-hydroxy-2-(1H-imidazol-1-yl)-5-(propan-2-yl)pyrimidin-4-yl]-oxy}methyl)piperazine-1-carboxylate]

The remaining lines, values behind:

Row | SMILES | pIC50 (KDM4C) | pIC50 (KDM5B; [1]) | pIC50 (KDM5B)
13 | CC(C)c1c(O)nc(-n2ccnc2)nc1-c1cnn(CC(=O)NCCN(C)c2ccccc2)c1 [Example 102, 2-{4-[6-Hydroxy-2-(1H-imidazol-1-yl)-5-(propan-2-yl)pyrimidin-4-yl]-1H-pyrazol-1-yl}-N-{2-[methyl-(phenyl)amino]ethyl}-acetamide] | 5.85 | 7.85 | 
14 | CC(C)c1c(O)nc(-n2ccnc2)nc1-c1cnn(CC(=O)N2CCCC(C#N)C2)c1 (centres unmarked) [Example 103, 1-(2-{4-[6-Hydroxy-2-(1H-imidazol-1-yl)-5-(propan-2-yl)pyrimidin-4-yl]-1H-pyrazol-1-yl}acetyl)-piperidine-3-carbonitrile] | 6.04 |  | 7.82
15 | CC(C)c1c(O)nc(-n2ccnc2)nc1-c1cnn(CC(=O)NCCO)c1 [Example 104, 2-{4-[6-Hydroxy-2-(1H-imidazol-1-yl)-5-(propan-2-yl)pyrimidin-4-yl]-1H-pyrazol-1-yl}-N-(2-hydroxy-ethyl)acetamide] | 5.86 |  | 7.82
16 | CC(C)c1c(O)nc(-n2ccnc2)nc1-c1cnn(CC(=O)NCCc2ccccn2)c1 [Example 105, 2-{4-[6-Hydroxy-2-(1H-imidazol-1-yl)-5-(propan-2-yl)pyrimidin-4-yl]-1H-pyrazol-1-yl}-N-[2-(pyridin-2-yl)ethyl]acetamide] | 5.97 |  | 7.77
17 | CC(C)c1c(O)nc(-n2ccnc2)nc1-c1cnn(CC(=O)NCc2ccn(C)n2)c1 [Example 106, 2-{4-[6-Hydroxy-2-(1H-imidazol-1-yl)-5-(propan-2-yl)pyrimidin-4-yl]-1H-pyrazol-1-yl}-N-[(1-methyl-1H-pyrazol-3-yl)methyl]-acetamide] | 6.06 |  | 7.74
18 | CC(C)c1c(O)nc(-n2ccnc2)nc1-c1cnn(CC(=O)NCCS(C)(=O)=O)c1 [Example 107, 2-{4-[6-Hydroxy-2-(1H-imidazol-1-yl)-5-(propan-2-yl)pyrimidin-4-yl]-1H-pyrazol-1-yl}-N-(2-methane-sulfonylethyl)acetamide] | 5.91 | 7.72 | 
19 | CC(C)c1c(O)nc(-n2ccnc2)nc1-c1cnn(CC(=O)NCCN2CCCC2=O)c1 [Example 109, 2-{4-[6-Hydroxy-2-(1H-imidazol-1-yl)-5-(propan-2-yl)pyrimidin-4-yl]-1H-pyrazol-1-yl}-N-[2-(2-oxo-pyrrolidin-1-yl)ethyl]-acetamide] | 5.81 | 7.70 | 
20 | CC(C)c1c(O)nc(-n2ccnc2)nc1-c1cnn(CC(=O)N2CCC(C#N)CC2)c1 [Example 110, 1-(2-{4-[6-Hydroxy-2-(1H-imidazol-1-yl)-5-(propan-2-yl)pyrimidin-4-yl]-1H-pyrazol-1-yl}acetyl)-piperidine-4-carbonitrile] | 5.90 |  | 7.68
21 | CC(C)c1c(O)nc(-n2ccnc2)nc1-c1cnn(CC(=O)NCCN(CC(F)(F)F)C2CC2)c1 [Example 111, N-[2-[Cyclopropyl(2,2,2-trifluoroethyl)amino]ethyl}-2-{4-[6-hydroxy-2-(1H-imidazol-1-yl)-5-(propan-2-yl)pyrimidin-4-yl]-1H-pyrazol-1-yl}acetamide] | 5.67 |  | 7.68
22 | CC(C)c1c(O)nc(-n2ccnc2)nc1-c1cnn(CC(=O)N2CCC(O)C2)c1 (centres unmarked) [Example 112, 2-{4-[6-Hydroxy-2-(1H-imidazol-1-yl)-5-(propan-2-yl)pyrimidin-4-yl]-1H-pyrazol-1-yl}-1-(3-hydroxy-pyrrolidin-1-yl)ethan-1-one] | 5.80 |  | 7.68
23 | CNC(=O)Cn1cc(-c2nc(-n3ccnc3)nc(O)c2C(C)C)cn1 [Example 113, 2-{4-[6-Hydroxy-2-(1H-imidazol-1-yl)-5-(propan-2-yl)pyrimidin-4-yl]-1H-pyrazol-1-yl)-N-methyl-acetamide] | 5.68 |  | 7.62
24 | CC(C)c1c(O)nc(-n2ccnc2)nc1-c1cnn(CC(=O)NCC(N)=O)c1 [Example 114, N-(Carbamoylmethyl)-2-{4-[6-hydroxy-2-(1H-imidazol-1-yl)-5-(propan-2-yl)pyrimidin-4-yl]-1H-pyrazol-1-yl}-acetamide] | 5.69 |  | 7.59
25 | CC(C)c1c(O)nc(-n2ccnc2)nc1-c1cnn(CC(=O)NC(CO)C(C)C)c1 (centres unmarked) [Example 115, 2-{4-[6-Hydroxy-2-(1H-imidazol-1-yl)-5-(propan-2-yl)pyrimidin-4-yl]-1H-pyrazol-1-yl}-N-(1-hydroxy-3-methylbutan-2-yl)acetamide] | 5.90 |  | 7.52
